In publication PMC8153077, “Inhibiting quinolone biosynthesis of Burkholderia” (Chemical Science, 2021):

Key:
HmqD [1] = molecular target: T1, HmqD (Burkholderia ambifaria, UniProt Q0B3G0); experiment: live-cell activity-based labelling with click chemistry and in-gel fluorescence; proteomic identification of the modified site
T1 construct: gene Bamb_5766; recombinant HmqD overexpressed in live E. coli BL21
Excerpt: live-cell activity-based labelling with click chemistry and in-gel fluorescence; proteomic identification of the modified site on HmqD | identified as site of modification by probe CAA only the active site cysteine C114

HmqD [2] = molecular target: T1, HmqD; experiment: competitive live-cell activity-based labelling against probe CAA, in-gel fluorescence

T1 sequence (Q0B3G0 entry or part of it): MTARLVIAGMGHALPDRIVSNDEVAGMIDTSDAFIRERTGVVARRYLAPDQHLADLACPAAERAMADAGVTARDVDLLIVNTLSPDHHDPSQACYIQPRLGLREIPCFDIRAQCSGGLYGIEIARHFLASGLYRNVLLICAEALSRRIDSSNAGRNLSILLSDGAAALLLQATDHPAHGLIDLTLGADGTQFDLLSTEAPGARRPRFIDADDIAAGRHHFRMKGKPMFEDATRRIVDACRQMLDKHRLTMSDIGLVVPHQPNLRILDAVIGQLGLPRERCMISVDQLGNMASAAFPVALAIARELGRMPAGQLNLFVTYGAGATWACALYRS

SMILES	live-cell activity-based labelling with click chemistry and in-gel fluorescence; (HmqD [1])	IC50 (HmqD [2])
C#CCCC(=O)NCc1ccc(N)c(C(=O)CCl)c1 [CAA]	15 nM	–
Nc1cc2c(cc1C(=O)CCl)OCCO2 [compound 7]	–	200 nM
Nc1ccc(I)cc1C(=O)CCl [compound 4]	–	100 nM
O=C(CCl)c1ccccc1 [compound 9]	–	200 nM
